Bridge positions count the residues as written; N and C are the ends. Square brackets hold non-standard residues; d marks the D form. Peptide text beside a SMILES is read from it. Phe(4-Cl) = N[C@@H](Cc1ccc(Cl)cc1)C(=O)O; 1Nal = N[C@@H](Cc1cccc2ccccc12)C(=O)O; His(π-Me) = Cn1cncc1C[C@H](N)C(=O)O; NMeY = CN[C@@H](Cc1ccc(O)cc1)C(=O)O; Nle = CCCC[C@H](N)C(=O)O; Abu = CC[C@H](N)C(=O)O; Aib = CC(C)(N)C(=O)O
Tests used:
Type in all cases: cell-based
Conditions in all cases: LB broth, 5×10^5 CFU/ml, 37° C., 18 hours, scored by eye
[1] = tested on: E. cloacae ATCC222; assay: Minimum Inhibitory Concentration (MIC) determination, E. cloacae ATCC222; parameters: unit not given here
Protocol: (§1) MICs were determined by performing two-fold serial dilutions of peptides in LB broth to a final volume of 0.1 ml in round-bottom 96-well assay plates (Corning Life Sciences No 3788). Peptides were initially resuspended in 100% DMSO to 10 mM and subsequently diluted in LB medium to the appropriate concentration. Each well was inoculated with 5×10^5 CFU/ml of the screening stain and incubated at 37° C. without agitation for 18 hours. Plates were scored by eye, and the lowest compound concentration preventing visible growth was determined to be the MIC.

[2] = tested on: E. coli BW25113; assay: Minimum Inhibitory Concentration (MIC) determination, E. coli BW25113; parameters: unit not given here
In short: (§2)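 Peptides, diluted two-fold in LB broth from 10 mM DMSO stocks, were inoculated with 5×10^5 CFU/ml of each strain. Incubation was 18 h at 37 °C without shaking. MIC is the lowest concentration preventing visible growth, scored by eye.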

[3] = tested on: E. coli 25922; assay: Minimum Inhibitory Concentration (MIC) determination, E. coli 25922; parameters: unit not given here
Protocol: as §1

[4] = tested on: K. pneumoniae ATCC43816; assay: Minimum Inhibitory Concentration (MIC) determination, K. pneumoniae ATCC43816; parameters: unit not given here
Protocol: as §1

[5] = tested on: E. coli 25922 IMP; assay: Minimum Inhibitory Concentration (MIC) determination, E. coli 25922 IMP
In short: as §2

Row | SMILES | MIC E. cloacae ATCC222 WUXI::MIC [1] | MIC E. coli BW25113 WUXI::MIC [2] | MIC E. coli 25922 WUXI::MIC [3] | MIC K. pneumoniae ATCC43816 Wuxi::MIC [4] | MIC E. coli 25922 IMP WUXI::MIC [5]
1 | CC[C@@H]1NC(=O)[C@H](CO)NC(=O)CSC[C@@H](C(=O)NCC(N)=O)NC(=O)[C@H](Cc2cncn2C)NC(=O)[C@H](CCCNC(=N)N)NC(=O)[C@H](Cc2c[nH]cn2)NC(=O)[C@H](Cc2ccc(O)cc2)N(C)C(=O)[C@H](CCCNC(=N)N)NC(=O)[C@H](CO)NC(=O)CNC(=O)[C@H](Cc2c[nH]cn2)NC(=O)[C@H](Cc2cccc3ccccc23)NC1=O [Compound 21, (3R,6S,9S,12S,15S,18S,21S,27S,30S, 33S,36S)-N-(2-amino-2-oxo-ethyl)-33-ethyl-9,18-bis(3-guanidinopropyl)-21,36-bis(hydroxymethyl)-15-[(4-hydroxyphenyl)methyl]-12,27-bis(1H-imidazol-4-ylmethyl)-16-methyl-6-[(3-methylimidazol-4-yl)methyl]-30-(1-naphthylmethyl)-5,8,11,14,17,20,23,26,29,32,35,38-dodecaoxo-1-thia-4,7,10,13,16,19,22,25,28,31,34,37-dodecazacyclononatriacontane-3-carboxamide] ({CH2CO}-S[Abu][1Nal]HGSR[NMeY]HR[His(π-Me)]CG-NH2; thioether N-12) | 3.1 | 50 | 50 | 25 | 0.063
2 | CC[C@@H]1NC(=O)[C@H](Cc2ccc(Cl)cc2)NC(=O)CSC[C@@H](C(=O)NCC(N)=O)NC(=O)[C@H](Cc2cncn2C)NC(=O)[C@H](CCCNC(=N)N)NC(=O)[C@H](Cc2c[nH]cn2)NC(=O)[C@H](Cc2ccc(O)cc2)N(C)C(=O)[C@H](CCCNC(=N)N)NC(=O)[C@H](CO)NC(=O)CNC(=O)[C@H](Cc2c[nH]cn2)NC(=O)[C@H](Cc2cccc3ccccc23)NC1=O [Compound 22] ({CH2CO}-[Phe(4-Cl)][Abu][1Nal]HGSR[NMeY]HR[His(π-Me)]CG-NH2; thioether N-12) | 0.39 | 25 | 6.3 | 13 | 0.002
3 | CC[C@@H](C)[C@H]1NC(=O)[C@@H](Cc2ccccc2)NC(=O)CSC[C@H](C(=O)NCC(N)=O)NC(=O)[C@@H](Cc2cncn2C)NC(=O)[C@@H](CCCNC(=N)N)NC(=O)[C@@H](Cc2cnc[nH]2)NC(=O)[C@@H](Cc2ccc(O)cc2)N(C)C(=O)[C@@H](CCCNC(=N)N)NC(=O)[C@@H](CO)NC(=O)CNC(=O)[C@@H](Cc2cnc[nH]2)NC(=O)[C@@H](Cc2cccc3ccccc23)NC1=O (mixture of isomers) [Compound 18] | 0.78 | 19 | 9.65 | 19 | 0.00585
4 | CC[C@@H]1NC(=O)[C@H](Cc2ccccc2)NC(=O)CSC[C@@H](C(=O)NCC(N)=O)NC(=O)[C@H](Cc2cncn2C)NC(=O)[C@H](CCCNC(=N)N)NC(=O)[C@H](Cc2cnc[nH]2)NC(=O)[C@H](Cc2ccc(O)cc2)N(C)C(=O)[C@H](CCCNC(=N)N)NC(=O)[C@H](CO)NC(=O)CNC(=O)[C@H](Cc2cnc[nH]2)NC(=O)[C@H](Cc2cccc3ccccc23)NC1=O (racemic) [Compound 16] | 0.2633 | 14.767 | 27.32 | 8.5333 | 1.577
5 | CC[C@@H]1NC(=O)[C@H](Cc2ccccc2)NC(=O)CSC[C@@H](C(=O)NCC(N)=O)NC(=O)[C@H](Cc2cncn2C)NC(=O)[C@H](C)NC(=O)[C@H](Cc2c[nH]cn2)NC(=O)[C@H](Cc2ccc(O)cc2)N(C)C(=O)[C@H](CCCNC(=N)N)NC(=O)[C@H](CO)NC(=O)CNC(=O)[C@H](Cc2c[nH]cn2)NC(=O)[C@H](Cc2cccc3ccccc23)NC1=O (stereo in doubt) [Compound 38] | 13 | 100 | 100 | 100 | 0.063
6 | CCCC[C@@H]1NC(=O)CSC[C@@H](C(=O)NCC(N)=O)NC(=O)[C@H](Cc2cncn2C)NC(=O)[C@H](CCCNC(=N)N)NC(=O)[C@H](Cc2c[nH]cn2)NC(=O)[C@H](Cc2ccc(O)cc2)N(C)C(=O)[C@H](CCCNC(=N)N)NC(=O)[C@H](CO)NC(=O)CNC(=O)[C@H](Cc2c[nH]cn2)NC(=O)[C@H](Cc2cccc3ccccc23)NC(=O)[C@H](CC)NC1=O [Compound 20] ({CH2CO}-[Nle][Abu][1Nal]HGSR[NMeY]HR[His(π-Me)]CG-NH2; thioether N-12) | 1.6 | 25 | 13 | 25 | 0.0078
7 | CC[C@@H]1NC(=O)[C@H](Cc2ccccc2)NC(=O)CSC[C@@H](C(=O)NCC(N)=O)NC(=O)[C@H](Cc2cncn2C)NC(=O)[C@H](CCCNC(=N)N)NC(=O)[C@H](Cc2c[nH]cn2)NC(=O)[C@H](Cc2ccc(O)cc2)N(C)C(=O)[C@H](CCCNC(=N)N)NC(=O)[C@H](CO)NC(=O)[C@@H](CO)NC(=O)[C@H](Cc2c[nH]cn2)NC(=O)[C@H](Cc2cccc3ccccc23)NC1=O [Compound 27] ({CH2CO}-F[Abu][1Nal]H[dS]SR[NMeY]HR[His(π-Me)]CG-NH2; thioether N-12) | 0.39 | 13 | 3.1 | 13 | 0.002
8 | CC[C@H](C)[C@@H]1NC(=O)[C@H]([C@@H](C)O)NC(=O)[C@H](Cc2cncn2C)NC(=O)[C@H](Cc2ccccc2)NC(=O)CSC[C@@H](C(=O)NCC(N)=O)NC(=O)[C@H](Cc2ccc(O)cc2)NC(=O)[C@H](Cc2c[nH]c3ccccc23)NC(=O)[C@H](Cc2ccc(O)cc2)NC(=O)[C@H](Cc2cncn2C)NC(=O)[C@H](Cc2ccccc2)NC(=O)C(C)(C)NC(=O)[C@H](CCCNC(=N)N)NC(=O)[C@H](CCCCN)NC(=O)[C@H](CCCNC(=N)N)NC1=O [Compound 51] ({CH2CO}-F[His(π-Me)]TIRKR[Aib]F[His(π-Me)]YWYCG-NH2; thioether N-14) | >32 | 8 | 8 | >32 | 0.5
9 | CC[C@H](C)[C@@H]1NC(=O)[C@H]([C@@H](C)O)NC(=O)[C@H](Cc2cncn2C)NC(=O)[C@H](Cc2ccccc2)NC(=O)CSC[C@@H](C(=O)NCC(N)=O)NC(=O)[C@H](Cc2ccc(O)cc2)NC(=O)[C@H](Cc2c[nH]c3ccccc23)NC(=O)[C@H](Cc2ccc(O)cc2)NC(=O)[C@H](CCCCN)NC(=O)[C@H](Cc2ccccc2)NC(=O)C(C)(C)NC(=O)[C@H](CO)NC(=O)[C@H](CCCCN)NC(=O)[C@H](CCCNC(=N)N)NC1=O (racemic) [Compound 61] | – | 16 | 16 | – | 1
